According to patent publication US9884823B2, “Oxime ether acetate compound, preparation method therefor and weeding application thereof” (ZHEJIANG UNIVERSITY OF TECHNOLOGY, priority 2014, dated 2018):
Like-named read-outs stand apart in the source and are kept apart here.

What was measured:
[1] = tested on: Chinese sorghum; experiment: Culture dish method (general screening); assay type: in vivo; details: 100 mg/L, 7 days
Text: (§3) Culture dish method (general screening): The test targets were radish, cucumber, rape, wheat, sorghum and barnyard grass; the seeds of wheat, sorghum and radish were germinated in advance, and the uniform emerge-germinating seeds were used in the test.

[2] = tested on: Mustard; details: 150 g a.i./ha, 30 days, Table 9
[3] = tested on: Small quinoa; details: 150 g a.i./ha, 30 days, Table 9
Text: (§1) The raw drug which was selected from the compounds in table 1 was weighed using an analytical balance (0.0001 g), and dissolved in DMF containing 1 wt % Tween-80 emulsifier to prepare a mother liquor of raw drug with a mass concentration of 1.0˜5.0%, and then diluted with distilled water, to prepare preparations at desired concentrations according to the ratio of ingredients in Examples 8, 9 and 10.
(§2) The test targets were mustard, small quinoa, Abutilon, amaranthus retroflexus, Eclipta prostrata, crabgrass, dog point. A pot with a diameter of 7.5 cm was used, filled with composite soil (garden soil:nursery matrix, 1:2, v/v) to ¾ of the pot, then the above […] kinds of weeds targets were directly seeded (germination rate ≧85%), covered with soil at a thickness of 0.2 cm. When the weeds grew to 3-leaf stage, pre-emergence soil treatment for weeds planting, and then spraying was performed.

[4] = tested on: broadleaf weeds such as mustard, small quinoa, Abutilon, Amaranthus retroflexus and Eclipta prostrate; details: 150 g a.i./ha
Text: as §1, §2

[5] = tested on: grass weeds such as crabgrass, barnyard grass, dog point; details: 150 g a.i./ha
Text: as §1, §2

[6] = tested on: Radish; experiment: Culture dish method (general screening); assay type: in vivo; details: 100 mg/L, 7 days
Text: as §3

[7] = tested on: Wheat; experiment: Culture dish method (general screening); assay type: in vivo; details: 100 mg/L, 7 days
Text: as §3

[8] = tested on: Eclipta prostrata; experiment: Potted plants live body test; assay type: in vivo; details: 150 g a.i./ha, 30 days, Table 9
Text: as §1, §2

[9] = tested on: Crabgrass; experiment: Potted plants live body test; assay type: in vivo; details: 150 g a.i./ha, 30 days, Table 9
Text: as §1, §2

[10] = tested on: Dog point; experiment: Potted plants live body test; assay type: in vivo; details: 150 g a.i./ha, 30 days, Table 9
Text: as §1, §2

[11] = tested on: Abutilon; experiment: Potted plants live body test; assay type: in vivo; details: 150 g a.i./ha, 30 days, Table 9
Text: as §1, §2

[12] = tested on: amaranthus retroflexus; experiment: Potted plants live body test; assay type: in vivo; details: 150 g a.i./ha, 30 days, Table 9
Text: as §1, §2

[13] = tested on: Cucumber; experiment: Culture dish method (general screening); assay type: in vivo; details: 100 mg/L, 7 days
Text: as §3

[14] = tested on: Barnyardgrass; experiment: Culture dish method (general screening); assay type: in vivo, barnyard grass; details: 100 mg/L, 7 days
Text: as §3

[15] = tested on: Rape; experiment: Culture dish method (general screening); assay type: in vivo; details: 100 mg/L, 7 days
Text: as §3

[16] = 30 days after administration, Table 9 summary

SMILES	inhibition rate, Chinese sorghum Root [1]	inhibition rate, Chinese sorghum Stem [1]	inhibition rate, Radish Root [6]	inhibition rate, Radish Stem [6]	inhibition rate, Wheat Root [7]	inhibition rate, Wheat Stem [7]	inhibition rate, Cucumber Root [13]	inhibition rate, Cucumber Stem [13]	inhibition rate, Barnyardgrass Root [14]	inhibition rate, Barnyardgrass Stem [14]	inhibition rate, Rape Root [15]	inhibition rate, Rape Stem [15]	other results
CON=C(C(=O)OC)c1ccccc1COc1cccc(-c2cccc(C)n2)c1 [Compound 85]	80%	30%	50%	50%	60%	20%	80%	30%	80%	0%	80%	50%	efficiency, Mustard ([2]; Postemergence spraying): 30%; efficiency, Mustard ([2]; Pre-emergence soil treatment): 20%; efficiency, Small quinoa ([3]; Postemergence spraying): 0%; efficiency, Small quinoa ([3]; Pre-emergence soil treatment): 0%; herbicidal activity on broadleaf weeds targets [4, 16]: herbicidal activity; activity on the growth of broadleaf weeds ([4]; postemergence spraying, 30 days, vs clear water control): inhibitory activity; activity for grass targets such as crabgrass and dog point [5, 16]: poor activity; activity on grass weeds such as crabgrass, dog point ([5]; postemergence spraying, 30 days): almost have no activity; efficiency, Eclipta prostrata ([8]; Postemergence spraying): 50%; efficiency, Eclipta prostrata ([8]; Pre-emergence soil treatment): 0%; efficiency, Crabgrass ([9]; Postemergence spraying): 0%; efficiency, Crabgrass ([9]; Pre-emergence soil treatment): 0%; efficiency, Dog point ([10]; Postemergence spraying): 0%; efficiency, Dog point ([10]; Pre-emergence soil treatment): 0%; efficiency, Abutilon ([11]; Postemergence spraying): 50%; efficiency, Abutilon ([11]; Pre-emergence soil treatment): 20%; efficiency, amaranthus retroflexus ([12]; Postemergence spraying): 0%; efficiency, amaranthus retroflexus ([12]; Pre-emergence soil treatment): 0%
CON=C(C(=O)OC)c1ccccc1COc1cccc(-c2ncc(Br)cc2[N+](=O)[O-])c1 [Compound 104]	0%	0%	0%	0%	0%	0%	20%	0%	0%	0%	50%	0%	–
CON=C(C(=O)OC)c1ccccc1COc1ccc(-c2ccc(C(F)(F)F)cn2)cc1 [Compound 32]	0%	0%	80%	50%	0%	0%	0%	0%	0%	0%	80%	80%	–
CON=C(C(=O)OC)c1ccccc1COc1cccc(-c2ccccn2)c1 [Compound 4]	0%	0%	50%	30%	0%	0%	30%	0%	30%	30%	30%	0%	–
CON=C(C(=O)OC)c1ccccc1COc1ccc(-c2ccnc(Cl)c2)cc1 [Compound 75]	0%	0%	0%	0%	0%	0%	30%	0%	30%	30%	0%	0%	–
CON=C(C(=O)OC)c1ccccc1COc1cccc(-c2ccnc(Cl)c2)c1 [Compound 67]	50%	50%	50%	50%	30%	0%	50%	0%	50%	0%	50%	30%	–
CON=C(C(=O)OC)c1ccccc1COc1cccc(-c2cc(C)ccn2)c1 [Compound 84]	0%	0%	0%	0%	0%	0%	30%	0%	80%	0%	50%	0%	–
CON=C(C(=O)OC)c1ccccc1COc1cccc(-c2c(Cl)cncc2Cl)c1 [Compound 110]	0%	0%	0%	0%	0%	0%	20%	0%	0%	0%	20%	0%	–
CON=C(C(=O)OC)c1ccccc1COc1ccc(-c2ccccn2)cc1 [Compound 7]	0%	0%	20%	0%	20%	0%	30%	0%	50%	20%	60%	30%	–
